According to patent US5840684A, “Glycopeptide antibiotic derivatives” (Eli Lilly and Company, priority 1995, dated 1998):
≈ marks a conversion by molar mass, not a printed value.

Experiments:
[1] = tested on: Staphylococcus aureus S13E; format: cell-based
Experimental: (§1) The MIC's were determined using a standard broth micro-dilution assay.

[2] = tested on: Staphylococcus aureus SA1199B; format: cell-based
Experimental: as §1

[3] = tested on: Entercoccus faecium 180-1; assay: broth micro-dilution MIC; format: cell-based
Experimental: as §1

Entercoccus faecium 276 = assay: broth micro-dilution MIC; format: cell-based
Experimental: as §1

[4] = tested on: Staphylococcus aureus 446; assay: broth micro-dilution MIC; format: cell-based
Experimental: as §1

[5] = tested on: Staphylococcus aureus 447; assay: broth micro-dilution MIC; format: cell-based
Experimental: as §1

[6] = tested on: Staphylococcus aureus 489; assay: broth micro-dilution MIC; format: cell-based
Experimental: as §1

[7] = tested on: Staphylococcus aureus 491; assay: broth micro-dilution MIC; format: cell-based
Experimental: as §1

[8] = tested on: Staphylococcus aureus SA1199; assay: broth micro-dilution MIC; format: cell-based
Experimental: as §1

[9] = tested on: Staphylococcus aureus X400; assay: broth micro-dilution MIC; format: cell-based
Experimental: as §1

[10] = tested on: Staphylococcus aureus X778; assay: broth micro-dilution MIC; format: cell-based
Experimental: as §1

[11] = tested on: Streptococcus pyogenes C203; assay: broth micro-dilution MIC; format: cell-based
Experimental: as §1

Entercoccus faecium 180 = assay: broth micro-dilution MIC; format: cell-based; conditions: Entercoccus faecium 180
Experimental: (§2) The formula I compounds have in vitro and in vivo activity against Gram-positive pathogenic bacteria. The MIC's were determined using a standard broth micro-dilution assay.

Entercoccus faecium 2041 = assay: broth micro-dilution MIC; format: cell-based; conditions: Entercoccus faecium 2041
Experimental: as §2

[12] = tested on: Enterococcus gallinarum 245; assay: broth micro-dilution MIC; format: cell-based; conditions: Enterococcus gallinarum 245
Experimental: as §2

[13] = tested on: Haemophilus influenzae RD; assay: broth micro-dilution MIC; format: cell-based; conditions: Haemophilus influenzae RD
Experimental: as §2

[14] = tested on: Staphylococcus epidermidis 270; assay: broth micro-dilution MIC; format: cell-based
Experimental: as §2

[15] = tested on: Staphylococcus haemolyticus 105; assay: broth micro-dilution MIC; format: cell-based
Experimental: as §2

[16] = tested on: Staphylococcus haemolyticus 415; assay: broth micro-dilution MIC; format: cell-based
Experimental: as §2

[17] = tested on: Streptococcus pneumoniae P1; assay: broth micro-dilution MIC; format: cell-based
Experimental: as §2

Streptococcus pyogenes = assay: mouse protection, experimentally-induced infection; format: in vivo; conditions: mice infected with Streptococcus pyogenes, two doses
Streptococcus pneumoniae = assay: mouse protection, experimentally-induced infection; format: in vivo; conditions: mice infected with Streptococcus pneumoniae, two doses
[18] = tested on: vancomycin-resistant enterococci; assay: broth micro-dilution, mean geometric MIC; format: cell-based, Enterococcus faecium and Enterococcus faecalis; conditions: enterococci, 24-hour incubation
[19] = tested on: vancomycin-susceptible enterococci; assay: broth micro-dilution, mean geometric MIC; format: cell-based, Enterococcus faecium and Enterococcus faecalis; conditions: enterococci, 24-hour incubation
[20] = tested on: Staphylococcus aureus SA1199A; assay: broth micro-dilution MIC; format: cell-based
Experimental: as §1

Stapylococcus aureus = assay: mouse protection, experimentally-induced infection; format: in vivo; conditions: mice infected with Stapylococcus aureus, two doses

SMILES	MIC [1] [µg/mL]	MIC [2]	MIC [3] [µg/mL]	MIC (Entercoccus faecium 276) [µg/mL]	MIC [4] [µg/mL]	MIC [5] [µg/mL]	MIC [6]	MIC [7] [µg/mL]	MIC [10] [µg/mL]	MIC [11] [µg/mL]	MIC (Entercoccus faecium 180) [µg/mL]	MIC (Entercoccus faecium 2041) [µg/mL]	MIC [12] [µg/mL]	MIC [15] [µg/mL]	MIC [16] [µg/mL]	MIC [17]	ED50 (Streptococcus pyogenes) [mg/kg/2]	ED50 (Streptococcus pneumoniae)	mean geometric MIC, Vancomycin Resistant Strains [18] [µg/mL]	mean geometric MIC, Vancomycin Sensitive Strains [19] [µg/mL]	other results
CNC(CC(C)C)C(=O)NC1C(=O)NC(CC(N)=O)C(=O)NC2C(=O)NC3C(=O)NC(C(=O)NC(C(=O)O)c4cc(O)cc(O)c4-c4cc3ccc4O)C(OC3CC(C)(N)C(O)C(C)O3)c3ccc(c(Cl)c3)Oc3cc2cc(c3OC2OC(CO)C(O)C(O)C2OC2CC(C)(NCc3cccc(OCC4CCCCC4)c3)C(O)C(C)O2)Oc2ccc(cc2Cl)C1O (stereo not shown) [Compound 123]	≤ 0.06	0.5 µg/mL (≈ 0.279 µM)	≤ 0.06	0.25 (≈ 0.139 µM)	2 (≈ 1.11 µM)	1 (≈ 0.557 µM)	2 µg/mL (≈ 1.11 µM)	≤ 0.06	1 (≈ 0.557 µM)	≤ 0.06	0.25 (≈ 0.139 µM)	≤ 0.06	1 (≈ 0.557 µM)	2 (≈ 1.11 µM)	1 (≈ 0.557 µM)	≤ 0.06 µg/mL	0.076	0.039 mg/kg/2	1.0	0.041	MIC [8]: 2 µg/mL (≈ 1.11 µM); MIC [9]: 1 µg/mL (≈ 0.557 µM); MIC [13]: 16 µg/mL (≈ 8.91 µM); MIC [14]: 1 µg/mL (≈ 0.557 µM)
CCCCCc1ccc(-c2ccc(CNC3(C)CC(OC4C(Oc5c6cc7cc5Oc5ccc(cc5Cl)C(OC5CC(C)(N)C(O)C(C)O5)C5NC(=O)C(NC(=O)C7NC(=O)C(CC(N)=O)NC(=O)C(NC(=O)C(CC(C)C)NC)C(O)c7ccc(c(Cl)c7)O6)c6ccc(O)c(c6)-c6c(O)cc(O)cc6C(C(=O)O)NC5=O)OC(CO)C(O)C4O)OC(C)C3O)cc2)cc1 (stereo not shown) [Compound 22]			≤ 0.06	4 (≈ 2.19 µM)			8 µg/mL (≈ 4.37 µM)	8 (≈ 4.37 µM)	8 (≈ 4.37 µM)	≤ 0.06	1 (≈ 0.547 µM)	2 (≈ 1.09 µM)	1 (≈ 0.547 µM)				> 0.5	> .05 mg/kg/2	1.0	1.5	MIC [20]: 4 µg/mL (≈ 2.19 µM); MIC [9]: 8 µg/mL (≈ 4.37 µM); MIC [14]: 4 µg/mL (≈ 2.19 µM); ED50 (Stapylococcus aureus): 0.049 mg/kg/2
CNC(CC(C)C)C(=O)NC1C(=O)NC(CC(N)=O)C(=O)NC2C(=O)NC3C(=O)NC(C(=O)NC(C(=O)O)c4cc(O)cc(O)c4-c4cc3ccc4O)C(OC3CC(C)(N)C(O)C(C)O3)c3ccc(c(Cl)c3)Oc3cc2cc(c3OC2OC(CO)C(O)C(O)C2OC2CC(C)(NCc3ccc(Cc4ccccc4)c(OC)c3)C(O)C(C)O2)Oc2ccc(cc2Cl)C1O (stereo not shown) [Compound 104]	≤ 0.06	0.125 µg/mL (≈ 0.0693 µM)	≤ 0.06	≤ 0.06	≤ 0.06		≤ 0.06 µg/mL	≤ 0.06	≤ 0.06	≤ 0.06	≤ 0.06	≤ 0.06	2 (≈ 1.11 µM)	2 (≈ 1.11 µM)	2 (≈ 1.11 µM)	≤ 0.06 µg/mL	0.12	0.041 mg/kg/2	1.2	0.062	MIC [20]: ≤ 0.06 µg/mL; MIC [8]: 2 µg/mL (≈ 1.11 µM); MIC [9]: ≤ 0.06 µg/mL; MIC [13]: 32 µg/mL (≈ 17.8 µM)
CNC(CC(C)C)C(=O)NC1C(=O)NC(CC(N)=O)C(=O)NC2C(=O)NC3C(=O)NC(C(=O)NC(C(=O)O)c4cc(O)cc(O)c4-c4cc3ccc4O)C(OC3CC(C)(N)C(O)C(C)O3)c3ccc(c(Cl)c3)Oc3cc2cc(c3OC2OC(CO)C(O)C(O)C2OC2CC(C)(NCc3ccc(OCc4ccccc4)c(OCc4ccccc4)c3)C(O)C(C)O2)Oc2ccc(cc2Cl)C1O (stereo not shown) [Compound 53]	2 (≈ 1.06 µM)	2 µg/mL (≈ 1.06 µM)	2 (≈ 1.06 µM)	8 (≈ 4.22 µM)	2 (≈ 1.06 µM)	4 (≈ 2.11 µM)		2 (≈ 1.06 µM)	2 (≈ 1.06 µM)	≤ 0.06	1 (≈ 0.528 µM)	1 (≈ 0.528 µM)	2 (≈ 1.06 µM)	2 (≈ 1.06 µM)	2 (≈ 1.06 µM)	≤ 0.06 µg/mL	0.16	0.071 mg/kg/2	0.35	0.25	MIC [8]: 2 µg/mL (≈ 1.06 µM); MIC [14]: 2 µg/mL (≈ 1.06 µM); ED50 (Stapylococcus aureus): 0.077 mg/kg/2
CNC(CC(C)C)C(=O)NC1C(=O)NC(CC(N)=O)C(=O)NC2C(=O)NC3C(=O)NC(C(=O)NC(C(=O)O)c4cc(O)cc(O)c4-c4cc3ccc4O)C(OC3CC(C)(N)C(O)C(C)O3)c3ccc(c(Cl)c3)Oc3cc2cc(c3OC2OC(CO)C(O)C(O)C2OC2CC(C)(NCc3ccc(-c4ccc(Cl)cc4)cc3)C(O)C(C)O2)Oc2ccc(cc2Cl)C1O (stereo not shown) [Compound 229, 4-[4-chlorophenyl]benzyl-A82846B]	1 (≈ 0.558 µM)	1 µg/mL (≈ 0.558 µM)	≤ 0.06	0.25 (≈ 0.139 µM)	1 (≈ 0.558 µM)	2 (≈ 1.12 µM)	1 µg/mL (≈ 0.558 µM)	0.5 (≈ 0.279 µM)	1 (≈ 0.558 µM)	≤ 0.06	≤ 0.06	≤ 0.06	2 (≈ 1.12 µM)	1 (≈ 0.558 µM)	2 (≈ 1.12 µM)	≤ 0.06 µg/mL	0.058	0.078 mg/kg/2	0.50	0.024	MIC [20]: ≤ 0.06 µg/mL; MIC [8]: 1 µg/mL (≈ 0.558 µM); MIC [9]: 1 µg/mL (≈ 0.558 µM); MIC [13]: 2 µg/mL (≈ 1.12 µM); MIC [14]: 0.5 µg/mL (≈ 0.279 µM)
CN[C@@H](CC(C)C)C(=O)N[C@H]1C(=O)N[C@H](CC(N)=O)C(=O)N[C@H]2C(=O)N[C@H]3C(=O)N[C@@H](C(=O)NC(C(=O)O)c4cc(O)cc(O)c4-c4cc3ccc4O)[C@@H](O[C@H]3C[C@](C)(N)[C@H](O)[C@@H](C)O3)c3ccc(cc3)Oc3cc2cc(c3O[C@H]2O[C@@H](CO)[C@@H](O)[C@H](O)[C@@H]2O[C@H]2C[C@](C)(N)[C@H](O)[C@@H](C)O2)Oc2ccc(cc2)[C@@H]1O (stereo partly shown) [Compound A82846C, A82846C, reference compound]		≤ .06 µg/mL		0.5 (≈ 0.328 µM)	0.5 (≈ 0.328 µM)	0.5 (≈ 0.328 µM)	≤ .06 µg/mL	1 (≈ 0.656 µM)	0.5 (≈ 0.328 µM)		16 (≈ 10.5 µM)	0.5 (≈ 0.328 µM)	0.5 (≈ 0.328 µM)	1 (≈ 0.656 µM)	2 (≈ 1.31 µM)	≤ .06 µg/mL	1.5		353		ED50 (Stapylococcus aureus): 1.3 mg/kg/2
CNC(CC(C)C)C(=O)NC1C(=O)NC(CC(N)=O)C(=O)NC2C(=O)NC3C(=O)NC(C(=O)NC(C(=O)O)c4cc(O)cc(O)c4-c4cc3ccc4O)C(OC3CC(C)(N)C(O)C(C)O3)c3ccc(c(Cl)c3)Oc3cc2cc(c3OC2OC(CO)C(O)C(O)C2OC2CC(C)(NCc3ccc(Oc4ccc([N+](=O)[O-])cc4)cc3)C(O)C(C)O2)Oc2ccc(cc2Cl)C1O (stereo not shown) [Compound 57]	≤ 0.06		≤ 0.06	0.5 (≈ 0.275 µM)		0.5 (≈ 0.275 µM)	0.5 µg/mL (≈ 0.275 µM)		≤ 0.06	≤ 0.06	0.5 (≈ 0.275 µM)	≤ 0.06	2 (≈ 1.1 µM)	8 (≈ 4.4 µM)	1 (≈ 0.55 µM)	≤ 0.06 µg/mL	0.054	0.046 mg/kg/2	0.35	0.041	MIC [20]: ≤ 0.06 µg/mL; MIC [8]: ≤ 0.06 µg/mL; MIC [14]: 0.5 µg/mL (≈ 0.275 µM); ED50 (Stapylococcus aureus): 0.041 mg/kg/2
